Reference: patent US7462634B2, “N-(pyridin-2-yl)-sulfonamide derivatives” (Agouron Pharmaceuticals, Inc., priority 2005, dated 2008)
pEC50, pKi: −log10 of the molar value.

Assays:
human 11βHSD1 [1] = molecular target: T1, human 11βHSD1 (Homo sapiens, UniProt P28845); assay: 11βHSD1 enzymatic assay, percentage of inhibition; type: biochemical; conditions: inhibitor at 0.1 uM
Procedure: Percentage of inhibition was determined in a 100 mM Triethanolamine buffer, pH 8.0, 200 mM NaCl, 0.02% n-dodecyl β-D-maltoside and 5mM β-ME. A typical reaction was carried on a Corning® u-bottom 96-well plate and is described as follows: 11βHSD1 enzyme (5 nM, final concentration) was pre-incubated in the presence of the inhibitor and NADPH (500 μM, final concentration) for at least 30 minutes in the assay buffer. When pre-incubation was completed, the reaction was initiated by adding the regenerating system (2 mM Glucose-6-Phosphate, 1 U/mL Glucose-6-Phosphate dehydrogenase, and 6 mM MgCl2, all the concentration reported are final in the assay buffer), and 3H-cortisone (200 nM, final concentration). After 60 minutes, 60 μL of the assay mixture was transferred to a second 96-well plate and mixed with an equal volume of dimethylsulfoxide to stop the reaction. A 15 μL aliquot from the reaction mixture was loaded into a C-18 column (Polaris C18-A, 50×4.6 mm, 5μ, 180 Angstrom from Varian) connected to an automated High-throughput Liquid Chromatography instrument developed by Cohesive Technologies commercially available from Franklin, Mass., with a β-RAM model 3 Radio-HPLC detector from IN/US commercially available from Tampa, Fla. The substrate and product peaks were separated by using an isocratic mixture of 43:57 methanol to water (v/v) at a flow rate of 1.0 mL/min.
Percent Inhibition was calculated based on the following equation: (100−(3H-Cortisol peak area with inhibitor/3Hcortisol peak area without inhibitor)×100).
[1,2-3H]-cortisone is commercially available from American Radiolabeled Chemicals Inc. of St. Louis, Mo. USA. NADPH while Glucose-6-Phosphate and Glucose-6-Phosphate dehydrogenase was purchased from Sigma®.

human 11βHSD1 [2] = molecular target: T1, human 11βHSD1; assay: 11βHSD1 enzymatic assay (Kiapp determination); type: biochemical
Procedure: The 11βHSD1 assay was performed in a 100 mM Triethanolamine buffer pH 8.0, containing 200 mM NaCl, 0.02% n-dodecyl β-D-maltoside, 5% glycerol, 5 mM β-mercaptoethanol. A typical reaction for the determination of Kiapp values was carried at room temperature in a Corning® u-bottom 96-well plate and is described as follows: 11βHSD1 enzyme (5 nM, final concentration) was pre-incubated in the presence of the inhibitor and NADPH (500 μM, final concentration) for at least 30 minutes in the assay buffer. When pre-incubation was completed, the reaction was initiated by adding the regenerating system (2 mM Glucose-6-Phosphate, 1 U/mL Glucose-6-Phosphate dehydrogenase, and 6 mM MgCl2, all the concentration reported are final in the assay buffer), and 3H-cortisone (200 nM, final concentration). After 60 minutes, 60 μL of the assay mixture was transferred to a second 96-well plate and mixed with an equal volume of dimethylsulfoxide to stop the reaction. A 15 μL aliquot from the reaction mixture was loaded into a C-18 column (Polaris C18-A, 50×4.6 mm, 5μ, 180 Angstrom from Varian) connected to an automated High-throughput Liquid Chromatography instrument developed by Cohesive Technologies, commercially available from Franklin, Mass. USA, with a β-RAM model 3 Radio-HPLC detector from IN/US, commercially available from Tampa, Fla. USA. The substrate and product peaks were separated by using an isocratic mixture of 43:57 methanol to water (v/v) at a flow rate of 1.0 mL/min.
The initial reaction velocities were measured by stopping the reaction at 60 min and by measuring the area of product formation in the absence and the presence of various concentrations of inhibitors. The Kiapp values were determined using the equation for tight-binding inhibitor developed by Morrison, J F. (Morrison J F. Biochim Biophys Acta. 1969; 185: 269-86):
Where vi, and vo are the rates of cortisol formation in the presence and in the absence of inhibitor, respectively, I is the inhibitor concentration and E is the 11βHSD1 concentration in the assay buffer. All the concentrations reported are the final concentrations in the assay buffer
See also Morrison, J. F., “Kinetics of the reversible inhibition of enzyme-catalysed reactions by tight-binding inhibitors,” Biochim Biophys Acta., 1969; 185: 269-86.

human 11βHSD1 [3] = molecular target: T1, human 11βHSD1; assay: HEK293-11βHSD1/GRE-Luciferase cell-based assay; design: expressed in transfected cells; conditions: HEK293 cells over-expressing human 11βHSD1, GRE-luciferase readout, cortisone substrate, 6 h; read-out: HEK EC50
Procedure: HEK293-11 βHSD1/GRE-Luciferase Cell-Based Assay
Inhibition of 11βHSD1 enzyme activity was also measured using human kidney HEK293 stable transfected cells, over-expressing human 11βHSD1, and a reporter plasmid containing DNA sequences for specific recognition of glucocorticoid-activated glucocorticoid receptors (GRE), using a method similar to that described in Bujalska et al, Human 11β-hydroxysteroid dehydrogenase: Studies on the stably transfected isoforms and localization of the type 2 isozyme within renal tissue, Steroids, 62(1), […], 77-82 . These sequences were fused to a luciferase reporter gene (Luc) allowing for quantification of 11 βHSD1 enzyme modulation. […] Cortisol (but not cortisone) binds and activates glucocorticoid receptors (GR), which will result in activation of luciferase and production of light (assay readout). A compound with the capability of inhibiting 11βHSD1 will reduce the luciferase signal, as compared to the cortisone control (enzyme substrate).
Cells were plated in 384 Well Flat Bottom White Polystyrene TC-Treated Microplates, at 20,000 cell/well at a volume of 40 μl/well, in serum-free DME Medium. Plates were incubated at 37° C., 5% CO2 overnight before addition of inhibitor compounds. Different concentrations of inhibitor compounds were added in 10% (v/v) dimethylsulfoxide (5 μL/well), followed by addition of 3 μM Cortisone (5 μL/well), and cells were incubated at 37° C. (5% CO2) for six hours. At the end of the incubation, 25 μL/well SteadyLite HTS were added and plates were incubated 10min at room temp on shaker. Plates were then read on Top Count using 384HSD1 program. The concentration of inhibitor compound causing 50% inhibition of light signal was determined via a custom made Excel Macro. All results were compared to 100% activation control, i.e. cells treated only with cortisone (no inhibitors added).

human 11βHSD1 [4] = molecular target: T1, human 11βHSD1; assay: Human Fa2N-4 immortalized cell-based assay (cortisol accumulation); conditions: Fa2N-4 human hepatocyte-derived cells, cortisol EIA, 5 μM cortisone, overnight
Procedure: Human Fa2N-4 Immortalized Cell-Based Assay
Fa2N4 is a cell line derived from human hepatocytes, developed by MultiCell Technologies, Inc. (U.S. Pat. No. 6,107,043), and commercialized by XenoTech LLC via an exclusive license. […] Inhibition of 11βHSD1 enzyme activity was assessed in this cell model by measuring decrease in cortisol (enzyme product) accumulation in cultures co-treated with cortisone (enzyme substrate) and the potential enzyme inhibitor. Cortisol signal was quantitatively determined in the supernatant of treated cells by means of the Correlate-Enzyme Immunoassay (EIA)™Cortisol kit (Assay Designs, Inc.).
Cells were plated in 96 Well Flat Bottom Collagen-coated Microplates, 20,000 cell/well, in 200 μl/well MFE™ (Multi-functional Enhancing—XenoTech, LLC) medium, containing antibiotics (penicillin-streptomycin) and supplemented with 10% of heat inactivated fetal bovine serum. Plates were incubated at 37° C., 5% CO2 overnight. The following day, and before addition of cortisone and inhibitor compounds, medium was changed to Hepatocyte Basal Medium (HBM—Cambrex Bio ScienceWalkersVille, Inc) containing only antibiotics. Thirty-minute pre-incubation with various concentrations of inhibitor compounds (20 μL/well), was followed by addition of 5 μM Cortisone (20 μL/well), and cells were incubated at 37° C., 5% CO2 overnight. At the end of the incubation, 100 μL of each supernatant was analyzed for cortisol content using the Cortisol-EIA kit from Assay Designs, following manufacturers' instructions. Plates were read on a plate reader (Spectra MAX PLUS—Molecular Devices Corporation) at 405 nm, with correction at 580 nm. All results were compared to 100% activation control, i.e. cells treated only with cortisone (no inhibitors added).

T1 sequence (P28845 whole entry): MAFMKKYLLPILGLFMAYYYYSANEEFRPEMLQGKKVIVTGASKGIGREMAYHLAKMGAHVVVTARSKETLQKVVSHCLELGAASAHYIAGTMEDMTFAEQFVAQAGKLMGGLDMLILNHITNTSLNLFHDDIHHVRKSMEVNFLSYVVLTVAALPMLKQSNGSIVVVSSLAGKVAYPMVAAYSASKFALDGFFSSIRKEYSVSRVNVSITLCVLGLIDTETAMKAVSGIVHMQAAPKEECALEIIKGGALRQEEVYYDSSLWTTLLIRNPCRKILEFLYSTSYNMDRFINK

Row | inhibition at 0.1 µM (human 11βHSD1 [1]) | pKi (human 11βHSD1 [2]) | pEC50 (human 11βHSD1 [3]) | % inh @ 0.1 uM (human 11βHSD1 [1]) | SMILES | pEC50 (human 11βHSD1 [4])
1 | 88% | 8.32 | – | – | CCNc1cccc(NS(=O)(=O)c2ccc(-c3ccc(C#N)cc3)cc2)n1 [Example 8, 4′-cyano-N-[6-(ethylamino)pyridin-2-yl]biphenyl4-sulfonamide] | –
2 | 100% | 8.55 | 7.23 | – | N#Cc1ccc(-c2ccc(S(=O)(=O)Nc3cccc(CO)n3)cc2)cc1 [Example 9, 4′-cyano-N-[6-(hydroxymethyl)pyridin-2-yl]biphenyl-4-sulfonamide] | 7.66
3 | 98% | 8.55 | – | – | Cc1cc(N)nc(NS(=O)(=O)c2cc(C)c(Cl)cc2F)c1 [Example 6, N-(6-amino-4-methylpyridin-2-yl)-4-chloro-2-fluoro-5-methylbenzenesulfonamide] | –
4 | – | 7.72 | 6.80 | 85% | CC(O)c1cccc(NS(=O)(=O)c2ccc(-c3ccc(C#N)cc3)cc2)n1 (single isomer, unassigned; (+)) [2(+), (+)-4′-Cyano-N-[6-(1-hydroxyethyl)pyridin-2-yl]biphenyl4-sulfonamide] | 7.25
5 | – | – | – | 53% | CC(O)c1cccc(NS(=O)(=O)c2ccc(-c3ccc(C#N)cc3)cc2)n1 (single isomer, unassigned; (-)) [2(−), (−)4′-Cyano-N-[6-(1-hydroxyethyl)pyridin-2-yl]biphenyl4-sulfonamide] | –
6 | 100% | 8.57 | 7.64 | – | Cc1cc(-c2ccc(C#N)cc2)ccc1S(=O)(=O)Nc1cccc(C(C)O)n1 (single isomer, unassigned; (+)) [4(+), (+)4′-Cyano-N-[6-(1-hydroxyethyl)pyridin-2-yl]-3-methylbiphenyl4-sulfonamide] | 8.10
7 | – | 8.28 | 7.29 | 97.9% | CCC(O)c1cccc(NS(=O)(=O)c2ccc(-c3ccc(C#N)cc3)cc2)n1 (single isomer, unassigned; (+)) [3(+), (+)-4′-cyano-N-[6-(1-hydroxypropyl)pyridin-2-yl]biphenyl-4-sulfonamide] | 7.94
8 | – | – | 6.37 | – | N#Cc1ccc(-c2ccc(S(=O)(=O)Nc3cccc(CCO)n3)cc2)cc1 [Comparative Example A, reference compound] | 7.11
9 | 84% | – | – | – | Cc1cc(-c2ccc(C#N)cc2)ccc1S(=O)(=O)Nc1cccc(C(C)O)n1 (single isomer, unassigned; (-)) [4(−), (−)4′-Cyano-N-[6-(1-hydroxyethyl)pyridin-2-yl]-3-methylbiphenyl4-sulfonamide] | –
10 | – | – | – | 59% | CCC(O)c1cccc(NS(=O)(=O)c2ccc(-c3ccc(C#N)cc3)cc2)n1 (single isomer, unassigned; (-)) [3(−), (−)4′-cyano-N-[6-(1-hydroxypropyl)pyridin-2-yl]biphenyl-4-sulfonamide] | –
11 | 93% | 8.01 | – | – | Cc1cc(S(=O)(=O)Nc2cccc(N)n2)c(F)cc1Cl [Example 5, N-(6-aminopyridin-2-yl)-4-chloro-2-fluoro-5-methylbenzenesulfonamide] | –
12 | 100% | 8.74 | – | – | Cc1cc(N)nc(NS(=O)(=O)c2sc(-c3ccc(C#N)cc3)nc2C)c1 [Example 1, N-(6-amino-4-methylpyridin-2-yl)-2-(4-cyanophenyl)-4-methyl-1,3-thiazole-5-sulfonamide] | –

Row | SMILES | inhibition at 0.1 µM (human 11βHSD1 [1]) | pKi (human 11βHSD1 [2]) | pEC50 (human 11βHSD1 [3]) | % inh @ 0.1 uM (human 11βHSD1 [1]) | pEC50 (human 11βHSD1 [4])
13 | CCCCOc1ccc(S(=O)(=O)Nc2cccc(N)n2)cc1 [Example 7, N-(6-aminopyridin-2-yl)-4-butoxybenzenesulfonamide] | 100% | 8.42 | – | – | –
